Data: patent US20220249475A1, “COMPOUNDS AND METHOD FOR TREATING CYTOKINE RELEASE SYNDROME” (Rigel Pharmaceuticals, Inc., priority 2019, published 2022)

Legend:
Assay type in all cases: cell-based
[1] = system: Dendritic cells + T cells + CD3/CD28 beads; experiment: CRS assay: Cell Titer Glo compound cytotoxicity; settings: Homo sapiens, luminescence of the remaining culture, read-out: Cell Titer Glo 2 EC50
From the text: (§1) Human PBMC cells (PPA Research Group, Cat No. 15-00021); RPMI media 10% FBS; GMCSF (Peprotech, Cat No. 300-03) and IL4 (Peprotech Cat No. 200-04); White clear bottom 96 well plates (Fisher, Cat No. 07-200-587, Corning #3903); Human IL-2 DuoSet ELISA (R&D Systems, Cat No. DY202); Human IL-6 DuoSet ELISA (R&D Systems, Cat No. DY206); Cell Titer Glo reagent (Promega, Cat No. G7573); Dynabeads Human T-Activator CD3/CD28 (Fisher, Cat No. 111.61D); Anti-human CD3 (BD Biosciences, Cat No. 555336); CD28, Clone CD28.2 (Beckman Coulter Inc. Cat No. IM1376); Recombinant Human IL-2 Protein (R&D Systems, Cat No. 202-IL-500).
After 4 days, the dendritic cells were harvested by spinning down (1000 rpm/10 min) and aspirating the media. After resuspending the cells in fresh RPMI media (10% FBS), the cells were plated (25K/well in 50 μl) onto a white clear bottom 96 well plate. […] of RPMI media containing 2× concentrated test compound was added per well to the above cell-culture media (final concentration becomes 1×) and the plates were pre-incubated for 1 hour at 37° C. […]
(§2) After incubation, 80 μl of the supernatant was harvested from each well for IL6 ELISA and 80 μl of the supernatant for IL2 ELISA. […] The plate was read for luminescence intensity to determine the compound cytotoxicity.

[2] = system: Dendritic cells + T cells + CD3/CD28 beads; experiment: CRS assay: dendritic cells + T cells + CD3/CD28 beads, IL2 ELISA; settings: Homo sapiens; same culture; IL-2 only produced by the activated T cells
From the text: as §1
Human peripheral blood mononuclear cells (PBMC) (400 million) obtained from the vendor were transferred into three T-175 flasks containing 16 ml RPMI media (10% fetal bovine serum (FBS)) and incubated for 2 hours at 37° C. After 2 hours, floating PBL was removed and the cell was rinsed twice with 10 ml of media. The PBL and media was saved for T cell expansion. 16 ml of fresh RPMI media (10% FBS) containing Granulocyte Macrophage Colony—Stimulating Factor (GMCSF) (100 ng/ml) and IL4 (20 ng/ml) was added and the flask was kept in a 37° C. incubator. […]
as §2

[3] = system: Dendritic cells + T cells + CD3/CD28 beads; experiment: CRS assay: dendritic cells + T cells + CD3/CD28 beads, IL6 ELISA; settings: human PBMC-derived dendritic cells, 1 hour compound pre-incubation, overnight with T cells and CD3/CD28 beads; IL-6 primarily produced by the dendritic cells

Row | Structure (SMILES) | EC50 [1] [µM] | EC50 [2] [µM] | EC50 [3] [µM]
1 | CCO[C@H]1CC[C@H](n2cc(NC(=O)c3csc(-c4cn[nH]c4)n3)c(-c3nc(F)ccc3F)n2)CC1 [VI-176, N-(3-(3,6-difluoropyridin-2-yl)-1-((1r,4r)-4-ethoxycyclohexyl)-1H-pyrazol-4-yl)-2-(1H-pyrazol-4-yl)thiazole-4-carboxamide] | 12 | 6.9 | 0.195
2 | COc1cc(Nc2ncc(C)c(Nc3ccc4oc(=O)[nH]c4c3)n2)cc(C)c1F [Compound I-432, 5-(2-(4-fluoro-3-methoxy-5-methylphenylamino)-5-methylpyrimidin-4-ylamino)benzo[d]oxazol-2(3H)-one] | 4.55 | 4.41 | 0.052
